Laboratory results as given in patent US20130296392A1, “METHODS FOR THE TREATMENT OF OVERACTIVE BLADDER” (THERAVIDA, INC., priority 2012, published 2013).

What was measured:
healthy individuals [1] = assay: Stimulated salivary flow (SSF), change from pre-dose baseline; format: in vivo, human
Protocol: Stimulated salivary flow (SSF) and dry mouth (assessed using a “visual analog scale,” or VAS) were determined at frequent intervals after administration of each treatment. Urine frequency, urine volume/void, and fluid volume consumed were also assessed for each treatment. […] SSF was measured in the following manner. […] The subject may have expectorated saliva in the containers several times if there was excessive saliva. The SSF values were tabulated at each time point and descriptive statistics were generated by treatment, for measured values and changes from pre-dose baseline. Total weight of saliva over time was analyzed using analysis of variance, with Tukey's method of comparison between treatments. Dry mouth was tabulated at each time point and descriptive statistics were generated by treatment, for measured values and changes from pre-dose baseline. Urine frequency, urine volume/void and fluid volume consumed were tabulated and summarized by treatment.

healthy individuals [2] = assay: Dry mouth assessment by visual analog scale (VAS); format: in vivo, human; conditions: for Change from Baseline of Dry Mouth Assessment (VAS), Mean: VAS 0=not dry, 10=very dry
Protocol: Stimulated salivary flow (SSF) and dry mouth (assessed using a “visual analog scale,” or VAS) were determined at frequent intervals after administration of each treatment. Urine frequency, urine volume/void, and fluid volume consumed were also assessed for each treatment.
The SSF values were tabulated at each time point and descriptive statistics were generated by treatment, for measured values and changes from pre-dose baseline. Total weight of saliva over time was analyzed using analysis of variance, with Tukey's method of comparison between treatments. Dry mouth was tabulated at each time point and descriptive statistics were generated by treatment, for measured values and changes from pre-dose baseline. Urine frequency, urine volume/void and fluid volume consumed were tabulated and summarized by treatment.
For qualitative assessment of dry mouth, the “visual analog scale,” or VAS, scale (0=not dry, 10=very dry, measured in centimeters) was used. Each subject was asked to mark a vertical line the VAS scale on how dry their mouth was at that moment.
VAS is a well-known method. In this method, subjects were shown a line scaled from 0 to 10 cm. Subjects were asked to rate the subjective criterion from 0-10 cm and make a mark on the line corresponding to their rating. For example, subjects were told that 0 cm on the line means no dry mouth at all and 10 cm on the line means extreme dry mouth. The subjects rated their extent of dry mouth on the line. Changes in the extent of dry mouth of a subject were measured using this technique throughout the treatment period.

Row | Compound | Mean SSF Change from Pre-dose Baseline (healthy individuals [1]; 1 hour post-dose) [g] | Mean SSF Change from Pre-dose Baseline (healthy individuals [1]; 2 hours post-dose) [g] | Mean SSF Change from Pre-dose Baseline (healthy individuals [1]; 3 hours post-dose) [g] | Mean SSF Change from Pre-dose Baseline (healthy individuals [1]; 4 hours post-dose) [g] | Mean SSF Change from Pre-dose Baseline (healthy individuals [1]; 6 hours post-dose) [g] | Mean SSF Change from Pre-dose Baseline (healthy individuals [1]; 9 hours post-dose) [g] | Mean SSF Change from Pre-dose Baseline (healthy individuals [1]; 12 hours post-dose) [g] | Mean VAS scores of dry mouth over time (healthy individuals [2]; 1 hour and 2 hour time points, compared with each of the other treatments) | Change from Baseline of Dry Mouth Assessment (VAS), Mean (healthy individuals [2]; 1 hour post-dose) [cm] | Change from Baseline of Dry Mouth Assessment (VAS), Mean (healthy individuals [2]; 2 hours post-dose) [cm] | Change from Baseline of Dry Mouth Assessment (VAS), Mean (healthy individuals [2]; 3 hours post-dose) [cm] | Change from Baseline of Dry Mouth Assessment (VAS), Mean (healthy individuals [2]; 4 hours post-dose) [cm] | Change from Baseline of Dry Mouth Assessment (VAS), Mean (healthy individuals [2]; 6 hours post-dose) [cm] | Change from Baseline of Dry Mouth Assessment (VAS), Mean (healthy individuals [2]; […] post-dose) [cm] | SSF after administration, in words (healthy individuals [1]; compared with placebo and pilocarpine alone (Treatment B))
1 | CC[C@@H]1C(=O)OC[C@@H]1Cc1cncn1C [Treatment B, pilocarpine] | 4.55 | 2.33 | 1.07 | 0.64 | 0.32 | -0.20 | -0.08 | markedly lower | −3.00 | −2.34 | −0.94 | −0.69 | −0.41 | −1.38 | –
2 | Cc1ccc(O)c([C@H](CCN(C(C)C)C(C)C)c2ccccc2)c1 [Treatment A, tolterodine] | -0.3 | -0.42 | -0.28 | 0.05 | 0.21 | -0.06 | 0.27 | – | 0.03 | 0.63 | 0.97 | 0.56 | 0.00 | 0.56 | decrease in SSF
